Measured values taken from ChEMBL document CHEMBL1649220, “New variant of CTX-M-type extended-spectrum beta-lactamases, CTX-M-71, with a Gly238Cys substitution in a Klebsiella pneumoniae isolate from Bulgaria” (2009).

Legend:
[1] = target: Beta-lactamase AH27 CTX-M-15 (Klebsiella pneumoniae) (UniProt Q2PUH3); assay: Ratio of Kcat to Km for Klebsiella pneumoniae AH27 CTX-M-15 beta-lactamase; design: unit not given here
[2] = target: T1, Extended spectrum beta-lactamase CTX-M-71 (Klebsiella pneumoniae) (UniProt C8YUV9); assay: Ratio of Kcat to Km for Klebsiella pneumoniae AH24-270 CTX-M-71 beta-lactamase; design: unit not given here
T1 sequence (whole entry): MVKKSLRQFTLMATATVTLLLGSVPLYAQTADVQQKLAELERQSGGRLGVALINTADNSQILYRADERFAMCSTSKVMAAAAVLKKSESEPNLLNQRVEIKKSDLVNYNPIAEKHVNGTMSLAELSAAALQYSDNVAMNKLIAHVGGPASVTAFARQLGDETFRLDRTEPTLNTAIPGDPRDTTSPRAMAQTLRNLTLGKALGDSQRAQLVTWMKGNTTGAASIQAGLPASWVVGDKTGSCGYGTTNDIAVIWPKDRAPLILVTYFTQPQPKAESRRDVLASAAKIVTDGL

CO/N=C(\C(=O)N[C@@H]1C(=O)N2C(C(=O)O)=C(COC(C)=O)CS[C@H]12)c1csc(N)n1
Ratio [1]: 6.77 | Ratio [2]: 0.5

CC(C)(O/N=C(\C(=O)N[C@@H]1C(=O)N2C(C(=O)[O-])=C(C[n+]3ccccc3)CS[C@H]12)c1csc(N)n1)C(=O)O
Ratio [1]: 0.0186 | Ratio [2]: 0.0038

CC1(C)S[C@@H]2[C@H](NC(=O)[C@H](N)c3ccc(O)cc3)C(=O)N2[C@H]1C(=O)O
Ratio [2]: 9.4

CO/N=C(\C(=O)N[C@@H]1C(=O)N2C(C(=O)O)=C(COC(N)=O)CS[C@H]12)c1ccco1
Ratio [1]: 0.25 | Ratio [2]: 0.1

C[C@H]1[C@H](NC(=O)/C(=N\OC(C)(C)C(=O)O)c2csc(N)n2)C(=O)N1S(=O)(=O)O
Ratio [2]: 0.084

CC1(C)S[C@@H]2[C@H](NC(=O)Cc3ccccc3)C(=O)N2[C@H]1C(=O)O
Ratio [1]: 5.4 | Ratio [2]: 11.8

CCN1CCN(C(=O)N[C@@H](C(=O)N[C@@H]2C(=O)N3[C@@H]2SC(C)(C)[C@@H]3C(=O)O)c2ccccc2)C(=O)C1=O
Ratio [2]: 8.4

O=C(Cc1cccs1)N[C@@H]1C(=O)N2C(C(=O)[O-])=C(C[n+]3ccccc3)CS[C@H]12
Ratio [1]: 4.82 | Ratio [2]: 3.8
